Each block holds one molecule with its values, some of them ahead of it.
Tests used:
[1] = target: Angiopoietin-1 receptor (Homo sapiens, UniProt Q02763); assay: Inhibition of TIE-2 (unknown origin) after 4 hrs by ADP-Glo luminescence assay
[2] = target: Vascular endothelial growth factor receptor 2 (Homo sapiens, UniProt P35968); assay: Inhibition of VEGFR-2 (unknown origin) after 60 mins by ADP-Glo luminescence assay
[3] = target: T1, Ephrin type-B receptor 4 (Homo sapiens, UniProt P54760); assay: Inhibition of EphB4 (unknown origin) after 4 hrs by ADP-Glo luminescence assay
T1 sequence (P54760 whole entry): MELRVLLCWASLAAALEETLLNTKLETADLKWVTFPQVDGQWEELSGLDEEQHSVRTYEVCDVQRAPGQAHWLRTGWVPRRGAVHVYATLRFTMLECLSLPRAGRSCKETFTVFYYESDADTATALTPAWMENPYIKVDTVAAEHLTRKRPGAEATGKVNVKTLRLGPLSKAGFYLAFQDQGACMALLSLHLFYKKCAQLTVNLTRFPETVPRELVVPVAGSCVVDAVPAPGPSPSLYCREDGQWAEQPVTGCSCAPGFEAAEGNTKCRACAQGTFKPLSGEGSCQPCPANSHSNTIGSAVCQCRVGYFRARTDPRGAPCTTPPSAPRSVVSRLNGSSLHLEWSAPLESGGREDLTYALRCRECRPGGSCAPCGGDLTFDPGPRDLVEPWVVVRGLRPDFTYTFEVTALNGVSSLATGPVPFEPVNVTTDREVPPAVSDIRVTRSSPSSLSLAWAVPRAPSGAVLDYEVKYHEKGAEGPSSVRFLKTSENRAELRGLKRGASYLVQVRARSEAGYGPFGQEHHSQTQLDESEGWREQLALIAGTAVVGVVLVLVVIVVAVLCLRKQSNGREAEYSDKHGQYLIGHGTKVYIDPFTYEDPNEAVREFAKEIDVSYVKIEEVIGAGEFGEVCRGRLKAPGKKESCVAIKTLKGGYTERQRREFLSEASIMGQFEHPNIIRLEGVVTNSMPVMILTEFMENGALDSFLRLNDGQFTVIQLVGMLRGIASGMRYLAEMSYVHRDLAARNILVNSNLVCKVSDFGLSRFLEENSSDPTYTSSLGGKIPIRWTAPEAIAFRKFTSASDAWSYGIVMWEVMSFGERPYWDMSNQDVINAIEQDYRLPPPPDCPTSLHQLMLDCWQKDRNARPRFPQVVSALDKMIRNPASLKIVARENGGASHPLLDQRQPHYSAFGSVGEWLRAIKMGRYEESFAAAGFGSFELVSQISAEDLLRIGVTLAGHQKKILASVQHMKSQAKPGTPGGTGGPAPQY

[4] = test system: EA.hy 926; assay: Anti-angiogenic activity in human EAhy926 cells as growth inhibition after 24 hrs by CCK-8 assay; type: cell-based; conditions: EA.hy 926, 24 h
[5] = target: Vascular endothelial growth factor receptor 1 (Homo sapiens, UniProt P17948); assay: Inhibition of VEGFR-1 (unknown origin)
[6] = target: Vascular endothelial growth factor receptor 3 (Homo sapiens, UniProt P35916); assay: Inhibition of VEGFR-3 (unknown origin)
[7] = target: Epidermal growth factor receptor (Homo sapiens, UniProt P00533); assay: Inhibition of EGFR (unknown origin)
[8] = target: Fibroblast growth factor receptor 1 (Homo sapiens, UniProt P11362); assay: Inhibition of FGFR-1 (unknown origin)
[9] = target: Fibroblast growth factor receptor 4 (Homo sapiens, UniProt P22455); assay: Inhibition of FGFR-4 (unknown origin)
[10] = target: Platelet-derived growth factor receptor beta (Homo sapiens, UniProt P09619); assay: Inhibition of PDGFRbeta (unknown origin)
[11] = target: Insulin-like growth factor 1 receptor (Homo sapiens, UniProt P08069); assay: Inhibition of IGF1-R (unknown origin)
[12] = target: Serine/threonine-protein kinase B-raf (Homo sapiens, UniProt P15056); assay: Inhibition of BRAF (unknown origin)
[13] = target: Mast/stem cell growth factor receptor Kit (Homo sapiens, UniProt P10721); assay: Inhibition of cKIT (unknown origin)
[14] = target: Hepatocyte growth factor receptor (Homo sapiens, UniProt P08581); assay: Inhibition of cMET (unknown origin)
Chain of Hepatocyte growth factor receptor (P08581 whole entry): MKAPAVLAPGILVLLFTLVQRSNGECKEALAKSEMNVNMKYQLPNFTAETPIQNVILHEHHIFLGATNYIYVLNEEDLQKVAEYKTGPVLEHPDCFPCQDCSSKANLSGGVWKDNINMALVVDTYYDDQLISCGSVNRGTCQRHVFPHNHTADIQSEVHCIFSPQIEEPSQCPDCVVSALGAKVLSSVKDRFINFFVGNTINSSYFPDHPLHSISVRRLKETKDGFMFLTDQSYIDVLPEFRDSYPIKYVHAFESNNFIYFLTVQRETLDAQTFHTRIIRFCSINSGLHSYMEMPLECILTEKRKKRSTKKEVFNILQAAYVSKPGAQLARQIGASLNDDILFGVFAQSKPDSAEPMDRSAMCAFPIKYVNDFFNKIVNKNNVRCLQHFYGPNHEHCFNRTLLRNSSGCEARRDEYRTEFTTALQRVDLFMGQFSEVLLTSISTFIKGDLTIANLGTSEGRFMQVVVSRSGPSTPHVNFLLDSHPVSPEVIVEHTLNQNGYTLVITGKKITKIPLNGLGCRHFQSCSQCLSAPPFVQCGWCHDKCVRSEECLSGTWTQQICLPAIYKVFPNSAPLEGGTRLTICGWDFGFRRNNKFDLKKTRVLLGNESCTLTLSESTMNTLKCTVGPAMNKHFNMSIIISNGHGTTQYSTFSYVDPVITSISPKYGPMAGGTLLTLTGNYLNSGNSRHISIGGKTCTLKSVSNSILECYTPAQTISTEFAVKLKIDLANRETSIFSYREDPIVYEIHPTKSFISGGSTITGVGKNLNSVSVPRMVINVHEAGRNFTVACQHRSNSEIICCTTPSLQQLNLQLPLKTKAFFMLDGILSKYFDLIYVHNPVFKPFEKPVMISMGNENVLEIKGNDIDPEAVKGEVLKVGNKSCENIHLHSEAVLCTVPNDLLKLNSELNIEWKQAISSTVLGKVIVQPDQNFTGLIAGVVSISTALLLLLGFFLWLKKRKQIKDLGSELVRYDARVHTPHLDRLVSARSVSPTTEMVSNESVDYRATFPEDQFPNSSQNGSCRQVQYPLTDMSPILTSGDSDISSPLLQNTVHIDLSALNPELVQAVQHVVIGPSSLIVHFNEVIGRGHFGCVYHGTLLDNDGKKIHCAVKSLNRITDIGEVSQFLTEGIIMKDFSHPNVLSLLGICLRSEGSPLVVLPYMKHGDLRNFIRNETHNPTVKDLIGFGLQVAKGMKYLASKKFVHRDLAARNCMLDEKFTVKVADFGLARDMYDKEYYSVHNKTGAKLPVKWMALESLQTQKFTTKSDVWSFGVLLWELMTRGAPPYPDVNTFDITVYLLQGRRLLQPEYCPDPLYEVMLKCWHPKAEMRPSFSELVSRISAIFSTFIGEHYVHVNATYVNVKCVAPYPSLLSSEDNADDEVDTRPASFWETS

Chain of Angiopoietin-1 receptor (Q02763 whole entry): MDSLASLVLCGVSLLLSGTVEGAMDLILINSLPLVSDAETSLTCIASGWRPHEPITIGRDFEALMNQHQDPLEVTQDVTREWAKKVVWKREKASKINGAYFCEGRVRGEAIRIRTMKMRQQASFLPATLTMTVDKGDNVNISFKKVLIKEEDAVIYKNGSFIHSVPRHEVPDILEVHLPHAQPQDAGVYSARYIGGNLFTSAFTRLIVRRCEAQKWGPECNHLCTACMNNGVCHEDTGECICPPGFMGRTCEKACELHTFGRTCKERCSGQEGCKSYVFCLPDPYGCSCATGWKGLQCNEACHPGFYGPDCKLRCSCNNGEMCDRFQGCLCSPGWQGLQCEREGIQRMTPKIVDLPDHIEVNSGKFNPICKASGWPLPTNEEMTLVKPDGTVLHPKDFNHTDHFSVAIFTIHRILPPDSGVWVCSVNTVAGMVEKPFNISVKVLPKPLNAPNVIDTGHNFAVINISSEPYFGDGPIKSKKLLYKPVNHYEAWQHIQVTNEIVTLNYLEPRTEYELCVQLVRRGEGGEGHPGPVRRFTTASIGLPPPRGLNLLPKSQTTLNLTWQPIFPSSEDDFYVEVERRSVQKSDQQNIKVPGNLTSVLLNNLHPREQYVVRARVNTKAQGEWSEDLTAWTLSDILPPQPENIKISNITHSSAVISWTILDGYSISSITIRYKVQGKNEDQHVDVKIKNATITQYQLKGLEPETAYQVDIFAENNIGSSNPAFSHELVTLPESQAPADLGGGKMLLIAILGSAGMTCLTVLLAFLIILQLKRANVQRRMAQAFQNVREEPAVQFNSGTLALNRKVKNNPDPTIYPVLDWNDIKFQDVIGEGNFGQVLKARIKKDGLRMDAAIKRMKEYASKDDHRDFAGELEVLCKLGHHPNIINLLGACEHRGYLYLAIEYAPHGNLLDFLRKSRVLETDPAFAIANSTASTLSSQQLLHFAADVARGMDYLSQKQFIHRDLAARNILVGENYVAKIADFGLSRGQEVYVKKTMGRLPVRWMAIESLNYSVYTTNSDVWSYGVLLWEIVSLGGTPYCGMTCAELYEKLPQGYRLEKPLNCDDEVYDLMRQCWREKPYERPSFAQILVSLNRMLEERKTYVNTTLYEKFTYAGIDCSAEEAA
Chain of Vascular endothelial growth factor receptor 2 (P35968 whole entry): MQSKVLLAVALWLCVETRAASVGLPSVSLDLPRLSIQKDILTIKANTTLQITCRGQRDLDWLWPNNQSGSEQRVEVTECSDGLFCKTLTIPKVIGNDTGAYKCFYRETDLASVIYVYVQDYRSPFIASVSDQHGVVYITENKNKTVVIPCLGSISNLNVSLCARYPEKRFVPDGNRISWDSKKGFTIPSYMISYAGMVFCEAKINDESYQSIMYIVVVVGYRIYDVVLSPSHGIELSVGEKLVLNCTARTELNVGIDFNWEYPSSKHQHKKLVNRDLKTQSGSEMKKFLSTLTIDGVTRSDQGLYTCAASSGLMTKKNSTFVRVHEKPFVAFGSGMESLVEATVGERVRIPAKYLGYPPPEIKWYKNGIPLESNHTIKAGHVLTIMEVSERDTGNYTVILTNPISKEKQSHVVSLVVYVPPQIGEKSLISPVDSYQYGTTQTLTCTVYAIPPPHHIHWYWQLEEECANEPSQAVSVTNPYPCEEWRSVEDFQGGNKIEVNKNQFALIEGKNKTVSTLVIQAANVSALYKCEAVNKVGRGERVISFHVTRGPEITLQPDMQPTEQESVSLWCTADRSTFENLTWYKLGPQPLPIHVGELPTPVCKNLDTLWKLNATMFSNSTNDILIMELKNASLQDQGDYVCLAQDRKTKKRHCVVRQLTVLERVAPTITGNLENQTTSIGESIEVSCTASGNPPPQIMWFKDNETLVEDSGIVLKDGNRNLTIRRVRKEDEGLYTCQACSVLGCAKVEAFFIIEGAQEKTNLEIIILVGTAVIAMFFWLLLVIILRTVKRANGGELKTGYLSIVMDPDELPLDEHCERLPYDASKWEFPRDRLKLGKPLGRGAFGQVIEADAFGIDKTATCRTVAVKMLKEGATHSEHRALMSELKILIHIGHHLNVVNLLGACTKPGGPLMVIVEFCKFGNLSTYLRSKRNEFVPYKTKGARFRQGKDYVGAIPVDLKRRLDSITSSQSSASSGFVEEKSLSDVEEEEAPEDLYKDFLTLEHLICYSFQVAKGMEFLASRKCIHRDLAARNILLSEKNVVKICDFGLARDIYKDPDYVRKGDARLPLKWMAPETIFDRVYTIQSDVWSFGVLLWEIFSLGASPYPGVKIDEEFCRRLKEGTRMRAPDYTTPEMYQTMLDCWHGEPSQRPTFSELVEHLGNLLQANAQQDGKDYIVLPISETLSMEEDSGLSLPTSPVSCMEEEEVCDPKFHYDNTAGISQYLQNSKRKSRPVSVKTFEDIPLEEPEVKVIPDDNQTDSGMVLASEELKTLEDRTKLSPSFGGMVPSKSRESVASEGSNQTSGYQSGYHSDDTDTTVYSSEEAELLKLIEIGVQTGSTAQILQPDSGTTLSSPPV
Chain of Serine/threonine-protein kinase B-raf (P15056 whole entry): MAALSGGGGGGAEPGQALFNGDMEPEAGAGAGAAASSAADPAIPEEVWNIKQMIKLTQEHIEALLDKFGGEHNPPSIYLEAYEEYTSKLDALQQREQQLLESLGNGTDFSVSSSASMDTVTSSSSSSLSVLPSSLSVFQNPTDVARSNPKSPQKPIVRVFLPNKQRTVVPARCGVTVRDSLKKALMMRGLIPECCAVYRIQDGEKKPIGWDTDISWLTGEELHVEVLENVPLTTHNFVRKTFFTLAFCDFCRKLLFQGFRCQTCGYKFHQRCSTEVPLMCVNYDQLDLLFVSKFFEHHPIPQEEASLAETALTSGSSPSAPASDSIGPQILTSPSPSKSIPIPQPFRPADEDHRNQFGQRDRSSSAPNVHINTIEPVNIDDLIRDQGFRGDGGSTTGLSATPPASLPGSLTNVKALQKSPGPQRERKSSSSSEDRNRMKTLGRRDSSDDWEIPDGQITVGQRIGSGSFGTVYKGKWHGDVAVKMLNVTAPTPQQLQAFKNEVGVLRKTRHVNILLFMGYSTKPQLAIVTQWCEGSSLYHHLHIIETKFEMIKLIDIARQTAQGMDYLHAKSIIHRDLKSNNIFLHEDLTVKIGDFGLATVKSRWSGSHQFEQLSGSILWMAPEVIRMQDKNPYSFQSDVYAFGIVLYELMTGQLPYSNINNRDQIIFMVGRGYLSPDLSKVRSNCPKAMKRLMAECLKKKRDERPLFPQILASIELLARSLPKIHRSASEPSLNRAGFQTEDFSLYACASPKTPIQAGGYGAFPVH

IC50 [1]: 7.97 nM
Compound: C=CC(=O)Nc1ccc(-c2ccc(NC(=O)Nc3ccccc3Cl)cc2)cn1

IC50 [1]: > 500 nM
Compound: C=CC(=O)Nc1ccc(-c2ccc(NC(=O)Nc3c(C)cccc3C)cc2)cn1

IC50 [1]: 14.5 nM
Compound: Nc1ncc2ccc(-c3ccc(NC(=O)C4(C(=O)Nc5ccc(F)c(F)c5)CC4)cc3)cc2n1

IC50 [1]: > 500 nM
Compound: Nc1ncc2ccc(-c3ccc(NC(=O)C4(C(=O)Nc5ccc(OC(F)(F)F)cc5Br)CC4)cc3)cc2n1

IC50 [1]: 21.3 nM
Compound: C=CC(=O)Nc1ccc(-c2ccc(NC(=O)Nc3ccc(C(C)(C)C)cc3)cc2)cn1

IC50 [1]: 14.2 nM
Compound: C=CC(=O)Nc1ccc(-c2ccc(NC(=O)Nc3ccc(C)c(Cl)c3)cc2)cn1

IC50 [1]: 3.59 nM
Compound: C=CC(=O)Nc1ccc(-c2ccc(NC(=O)Nc3cccc(C(F)(F)F)c3)cc2)cn1

IC50 [1]: 54.9 nM
Compound: Nc1ncc2ccc(-c3ccc(NC(=O)C4(C(=O)Nc5ccc(Cl)cc5Cl)CC4)cc3)cc2n1

IC50 [1]: 105 nM
Compound: C=CC(=O)Nc1ccc(-c2ccc(NC(=O)Nc3ccc(F)cc3)cc2)cn1

IC50 [1]: 16.6 nM
Compound: O=C(Nc1cccc(-c2ccc3c(=O)[nH]cnc3c2)c1)Nc1ccc(F)c(F)c1

IC50 [1]: > 500 nM
Compound: Nc1ncc2ccc(-c3ccc(NC(=O)C4(C(=O)Nc5ccc(Cl)c(Cl)c5)CC4)cc3)cc2n1

IC50 [1]: 9.19 nM
Compound: C=CC(=O)Nc1ccc(-c2ccc(NC(=O)Nc3cccc(C(C)C)c3)cc2)cn1

IC50 [1]: 9.77 nM
Compound: C=CC(=O)Nc1ccc(-c2ccc(NC(=O)Nc3ccc(Cl)c(C(F)(F)F)c3)cc2)cn1

IC50 [1]: > 500 nM
Compound: Nc1ncc2ccc(-c3ccc(NC(=O)C4(C(=O)Nc5cc(Br)ccc5OC(F)(F)F)CC4)cc3)cc2n1

The next lines start with the molecule.

Compound: O=C(Nc1cccc(-c2ccc3c(=O)[nH]cnc3c2)c1)Nc1cc(C(F)(F)F)cc(C(F)(F)F)c1
IC50 [1]: 245 nM

Compound: Nc1ncc2ccc(-c3ccc(NC(=O)C4(C(=O)Nc5ccc6c(c5)OCO6)CC4)cc3)cc2n1
IC50 [2]: > 500 nM
IC50 [1]: 432 nM
IC50 [3]: > 500 nM
IC50 [4]: 29200 nM

Compound: C=CC(=O)Nc1ccc(-c2ccc(NC(=O)Nc3cccc(F)c3)cc2)cn1
IC50 [1]: 90.9 nM

Compound: Nc1ncc2ccc(-c3ccc(NC(=O)C4(C(=O)Nc5cc(OC(F)(F)F)ccc5Br)CC4)cc3)cc2n1
IC50 [1]: 14.7 nM

Compound: O=C(Nc1cccc(Cl)c1)Nc1cccc(-c2ccc3c(=O)[nH]cnc3c2)c1
IC50 [1]: 24.8 nM

Compound: O=C(Nc1cccc(-c2ccc3c(=O)[nH]cnc3c2)c1)Nc1ccc(Cl)c(C(F)(F)F)c1
IC50 [1]: > 500 nM

Compound: Nc1ncc2ccc(-c3ccc(NC(=O)C4(C(=O)Nc5ccc(OCCCN6CCOCC6)c(F)c5)CC4)cc3)cc2n1
IC50 [2]: > 500 nM
IC50 [1]: > 500 nM
IC50 [3]: > 500 nM
IC50 [4]: 32200 nM

Compound: Nc1ncc2ccc(-c3ccc(NC(=O)C4(C(=O)Nc5cc(Br)cc(C(F)(F)F)c5)CC4)cc3)cc2n1
IC50 [1]: 65.3 nM

Compound: O=C(Nc1cccc(-c2ccc3c(=O)[nH]cnc3c2)c1)Nc1cccc(C(F)(F)F)c1
IC50 [1]: 12.8 nM

Compound: C=CC(=O)Nc1ccc(-c2ccc(NC(=O)Nc3cccc(Cl)c3)cc2)cn1
IC50 [1]: 5.63 nM
IC50 [5]: 25 nM
IC50 [6]: 45 nM
IC50 [7]: 8.7 nM
IC50 [8]: 200 nM
IC50 [9]: 1080 nM
IC50 [10]: 180 nM
IC50 [11]: 40 nM
IC50 [12]: 32 nM
IC50 [13]: 68.9 nM
IC50 [14]: 57.8 nM

Compound: C=CC(=O)Nc1ccc(-c2ccc(NC(=O)Nc3ccc(OC(F)(F)F)cc3)cc2)cn1
IC50 [1]: 59.9 nM

Compound: Nc1ncc2ccc(-c3ccc(NC(=O)C4(C(=O)Nc5cc(C(F)(F)F)cc(C(F)(F)F)c5)CC4)cc3)cc2n1
IC50 [1]: 21.2 nM

Compound: Nc1ncc2ccc(-c3ccc(NC(=O)C4(C(=O)Nc5ccc(Br)cc5OC(F)(F)F)CC4)cc3)cc2n1
IC50 [1]: > 500 nM
